pIC50: −log10 of the molar value.
System: 926638-142-R-J1-PDC complex spheroid viability
Experiment: Anticancer human tumor 926638-142-R-J1-PDC patient-derived endometrial carcinoma cell line growth inhibition [POLQ]
Settings: for pIC50: curve of first compound; for viability, T/C: stronger effect = lower value
In short: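 Patient-derived tumour cells were co-cultured with HUVEC and mesenchymal stem cells as multicellular spheroids at 37 °C. They were treated with POLQ inhibitors (novobiocin, ART-558, RP6685) alone or combined with other agents. Top concentrations were at or near clinical Cmax (otherwise 10 microM; SN-38 at 1 microM), decreasing in half-log steps.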

[1] = second compound 0.0316 µM, first compound 0.0316 µM
[2] = second compound 0.0316 µM, first compound 0.1 µM
[3] = second compound 0.0316 µM, first compound 0.316 µM
[4] = second compound 0.0316 µM, first compound 1 µM
[5] = second compound 0.0316 µM, first compound 3.16 µM
[6] = second compound 0.0316 µM, first compound 10 µM
[7] = second compound 0.1 µM, first compound 0.0316 µM
[8] = second compound 0.1 µM, first compound 0.1 µM
[9] = second compound 0.1 µM, first compound 0.316 µM
[10] = second compound 0.1 µM, first compound 1 µM
[11] = second compound 0.1 µM, first compound 3.16 µM
[12] = second compound 0.1 µM, first compound 10 µM
[13] = second compound 0.316 µM, first compound 0.0316 µM
[14] = second compound 0.316 µM, first compound 0.1 µM
[15] = second compound 0.316 µM, first compound 0.316 µM
[16] = second compound 0.316 µM, first compound 1 µM
[17] = second compound 0.316 µM, first compound 3.16 µM
[18] = second compound 0.316 µM, first compound 10 µM
[19] = second compound 1 µM, first compound 0.0316 µM
[20] = second compound 1 µM, first compound 0.1 µM
[21] = second compound 1 µM, first compound 0.316 µM
[22] = second compound 1 µM, first compound 1 µM
[23] = second compound 1 µM, first compound 3.16 µM
[24] = second compound 1 µM, first compound 10 µM
[25] = second compound 3.16 µM, first compound 0.0316 µM
[26] = second compound 3.16 µM, first compound 0.1 µM
[27] = second compound 3.16 µM, first compound 0.316 µM
[28] = second compound 3.16 µM, first compound 1 µM
[29] = second compound 3.16 µM, first compound 3.16 µM
[30] = second compound 3.16 µM, first compound 10 µM
[31] = second compound 10 µM, first compound 0.0316 µM
[32] = second compound 10 µM, first compound 0.1 µM
[33] = second compound 10 µM, first compound 0.316 µM
[34] = second compound 10 µM, first compound 1 µM
[35] = second compound 10 µM, first compound 3.16 µM
[36] = second compound 10 µM, first compound 10 µM
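Also: spheroids exposed to drugs for one week before readout.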
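For viability, T/C in this document: percent viability relative to DMSO vehicle control wells set as 100%.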

CNCc1ccc(-c2[nH]c3cc(F)cc4c3c2CCNC4=O)cc1 + Cc1cccc(N(C)C(=O)C2C(O)CCN2c2nc(C)cc(C(F)(F)F)c2C#N)c1
pIC50 (second compound 0.0316 µM): < 5.00 | pIC50 (second compound 0.1 µM): < 5.00 | pIC50 (second compound 0.316 µM): < 5.00 | pIC50 (second compound 1 µM): < 5.00 | pIC50 (second compound 3.16 µM): < 5.00 | pIC50 (second compound 10 µM): < 5.00 | viability, T/C [1]: 69.2% | viability, T/C [2]: 112% | viability, T/C [3]: 100% | viability, T/C [4]: 93.8% | viability, T/C [5]: 89.9% | viability, T/C [6]: 82% | viability, T/C [7]: 103% | viability, T/C [8]: 97.9% | viability, T/C [9]: 85.5% | viability, T/C [10]: 80.1% | viability, T/C [11]: 75.6% | viability, T/C [12]: 74.7% | viability, T/C [13]: 104% | viability, T/C [14]: 92.7% | viability, T/C [15]: 84.5% | viability, T/C [16]: 89.7% | viability, T/C [17]: 100% | viability, T/C [18]: 81% | viability, T/C [19]: 91.3% | viability, T/C [20]: 89.6% | viability, T/C [21]: 89.7% | viability, T/C [22]: 89% | viability, T/C [23]: 81% | viability, T/C [24]: 79.1% | viability, T/C [25]: 97.8% | viability, T/C [26]: 92.8% | viability, T/C [27]: 85.1% | viability, T/C [28]: 87.9% | viability, T/C [29]: 98.5% | viability, T/C [30]: 69.7% | viability, T/C [31]: 88.8% | viability, T/C [32]: 87.7% | viability, T/C [33]: 96.2% | viability, T/C [34]: 87.2% | viability, T/C [35]: 75.4% | viability, T/C [36]: 71.7%

Cn1ncnc1[C@H]1c2n[nH]c(=O)c3cc(F)cc(c23)N[C@@H]1c1ccc(F)cc1 + Cc1cccc(N(C)C(=O)C2C(O)CCN2c2nc(C)cc(C(F)(F)F)c2C#N)c1
pIC50 (second compound 0.0316 µM): < 7.00 | pIC50 (second compound 0.1 µM): < 7.00 | pIC50 (second compound 0.316 µM): < 7.00 | pIC50 (second compound 1 µM): < 7.00 | pIC50 (second compound 3.16 µM): < 7.00 | pIC50 (second compound 10 µM): < 7.00 | viability, T/C (second compound 0.0316 µM, first compound 0.000316 µM): 100% | viability, T/C (second compound 0.0316 µM, first compound 0.001 µM): 83.6% | viability, T/C (second compound 0.0316 µM, first compound 0.00316 µM): 86.1% | viability, T/C (second compound 0.0316 µM, first compound 0.01 µM): 84.9% | viability, T/C [1]: 81.5% | viability, T/C [2]: 73.8% | viability, T/C (second compound 0.1 µM, first compound 0.000316 µM): 91.2% | viability, T/C (second compound 0.1 µM, first compound 0.001 µM): 82.4% | viability, T/C (second compound 0.1 µM, first compound 0.00316 µM): 83.6% | viability, T/C (second compound 0.1 µM, first compound 0.01 µM): 82.5% | viability, T/C [7]: 73.7% | viability, T/C [8]: 78.8% | viability, T/C (second compound 0.316 µM, first compound 0.000316 µM): 86.9% | viability, T/C (second compound 0.316 µM, first compound 0.001 µM): 81.2% | viability, T/C (second compound 0.316 µM, first compound 0.00316 µM): 92.9% | viability, T/C (second compound 0.316 µM, first compound 0.01 µM): 73.4% | viability, T/C [13]: 64.9% | viability, T/C [14]: 65.3% | viability, T/C (second compound 1 µM, first compound 0.000316 µM): 103% | viability, T/C (second compound 1 µM, first compound 0.001 µM): 101% | viability, T/C (second compound 1 µM, first compound 0.00316 µM): 70.3% | viability, T/C (second compound 1 µM, first compound 0.01 µM): 77.2% | viability, T/C [19]: 85.1% | viability, T/C [20]: 68.1% | viability, T/C (second compound 3.16 µM, first compound 0.000316 µM): 73.5% | viability, T/C (second compound 3.16 µM, first compound 0.001 µM): 97.5% | viability, T/C (second compound 3.16 µM, first compound 0.00316 µM): 91% | viability, T/C (second compound 3.16 µM, first compound 0.01 µM): 67.5% | viability, T/C [25]: 74.1% | viability, T/C [26]: 76.8% | viability, T/C (second compound 10 µM, first compound 0.000316 µM): 87.9% | viability, T/C (second compound 10 µM, first compound 0.001 µM): 84.2% | viability, T/C (second compound 10 µM, first compound 0.00316 µM): 77.3% | viability, T/C (second compound 10 µM, first compound 0.01 µM): 80% | viability, T/C [31]: 72.7% | viability, T/C [32]: 75.7%

O=C(c1cc(Cc2n[nH]c(=O)c3ccccc23)ccc1F)N1CCN(C(=O)C2CC2)CC1 + Cc1cccc(N(C)C(=O)C2C(O)CCN2c2nc(C)cc(C(F)(F)F)c2C#N)c1
pIC50 (second compound 0.0316 µM): < 5.00 | pIC50 (second compound 0.1 µM): < 5.00 | pIC50 (second compound 0.316 µM): < 5.00 | pIC50 (second compound 1 µM): < 5.00 | pIC50 (second compound 3.16 µM): < 5.00 | pIC50 (second compound 10 µM): < 5.00 | viability, T/C [1]: 102% | viability, T/C [2]: 93% | viability, T/C [3]: 92.1% | viability, T/C [4]: 87.2% | viability, T/C [5]: 74.5% | viability, T/C [6]: 79.1% | viability, T/C [7]: 114% | viability, T/C [8]: 87.8% | viability, T/C [9]: 92.4% | viability, T/C [10]: 88.3% | viability, T/C [11]: 77.6% | viability, T/C [12]: 79.1% | viability, T/C [13]: 101% | viability, T/C [14]: 91.6% | viability, T/C [15]: 82.9% | viability, T/C [16]: 85.9% | viability, T/C [17]: 85.8% | viability, T/C [18]: 86.5% | viability, T/C [19]: 86.5% | viability, T/C [20]: 83.5% | viability, T/C [21]: 91.5% | viability, T/C [22]: 91.8% | viability, T/C [23]: 67.5% | viability, T/C [24]: 87.2% | viability, T/C [25]: 76.4% | viability, T/C [26]: 98.2% | viability, T/C [27]: 101% | viability, T/C [28]: 79.9% | viability, T/C [29]: 86.3% | viability, T/C [30]: 69.8% | viability, T/C [31]: 72.3% | viability, T/C [32]: 80% | viability, T/C [33]: 78.9% | viability, T/C [34]: 75.7% | viability, T/C [35]: 69.8% | viability, T/C [36]: 71.1%

— PubChem BioAssay AID1963826 (Molecular Pharmacology Branch, DTP, NCI, 2024)
